Activity calls are given as the source filed them. The rule behind the calls is not given here.
Tests used:
[1] = molecular target: Aldo-keto reductase family 1 member B1 (Bos taurus) (UniProt P16116); test: In vitro % decrease of aldose reductase was measured in isolated partially purified bovine lens preparations at 10e-7 M concentration; Not active
Rattus norvegicus [2] = test: In vivo inhibition of galactitol accumulation in sciatic nerves of rat at 24 mg/kg/day; assay type: functional; conditions: Sciatic nerve
Rattus norvegicus [3] = test: In vivo inhibition of galactitol accumulation in diaphragm of rat at 24 mg/kg/day; assay type: functional
[4] = molecular target: Aldo-keto reductase family 1 member B1 (Bos taurus) (UniProt P16116); test: In vitro% decrease of aldose reductase was measured in isolated partially purified bovine lens preparations at 10e-7 M concentration
Rattus norvegicus [5] = test: In vivo inhibition of galactitol accumulation in sciatic nerves of rat at 52 mg/kg/day; Not significant; assay type: functional, organism-based; conditions: Sciatic nerve
Rattus norvegicus [6] = organism: Rattus norvegicus; test: In vitro inhibition of sorbitol accumulation was measured in rat sciatic nerves incubated in the presence of 50 mM glucose at 10e-5 M concentration; assay type: functional, Sciatic nerve
Rattus norvegicus [7] = organism: Rattus norvegicus; test: In vitro inhibition of sorbitol accumulation was measured in rat sciatic nerves incubated in the presence of 50 mM glucose at 10e-6 M concentration; assay type: functional, Sciatic nerve
Rattus norvegicus [8] = test: In vivo inhibition of galactitol accumulation in diaphragm of rat at 52 mg/kg/day; Not significant; assay type: functional, organism-based
[9] = molecular target: Aldo-keto reductase family 1 member B1 (Bos taurus) (UniProt P16116); test: In vitro % decrease of aldose reductase measured in isolated partially purified bovine lens preparations at 10e-7 M concentration
Rattus norvegicus [10] = test: In vivo inhibition of galactitol accumulation in diaphragm of rat at 50 mg/kg/day; assay type: functional
Rattus norvegicus [11] = test: In vivo inhibition of galactitol accumulation in sciatic nerves of rat at 50 mg/kg/day; Not significant; assay type: functional, organism-based; conditions: Sciatic nerve
[12] = molecular target: Aldo-keto reductase family 1 member B1 (Bos taurus) (UniProt P16116); test: In vitro % decrease of […] reductase was measured in isolated partially purified bovine lens preparations at 10e-7 M concentration
Rattus norvegicus [13] = test: In vivo inhibition of galactitol accumulation in diaphragm of rat at 26 mg/kg/day; assay type: functional
Rattus norvegicus [14] = test: In vivo inhibition of galactitol accumulation in sciatic nerves of rat at 26 mg/kg/day; Not significant; assay type: functional, organism-based; conditions: Sciatic nerve
Rattus norvegicus [15] = test: In vivo inhibition of galactitol accumulation in diaphragm of rat at 48 mg/kg/day; assay type: functional
Rattus norvegicus [16] = test: In vivo inhibition of galactitol accumulation in sciatic nerves of rat at 48 mg/kg/day; Not significant; assay type: functional, organism-based; conditions: Sciatic nerve
Rattus norvegicus [17] = test: In vivo inhibition of galactitol accumulation in diaphragm of rat at 27 mg/kg/day; assay type: functional
Rattus norvegicus [18] = test: In vivo inhibition of galactitol accumulation in sciatic nerves of rat at 27 mg/kg/day; Not significant; assay type: functional, organism-based; conditions: Sciatic nerve
Rattus norvegicus [19] = test: In vivo inhibition of galactitol accumulation in diaphragm of rat at 49 mg/kg/day; assay type: functional
Rattus norvegicus [20] = test: In vivo inhibition of galactitol accumulation in sciatic nerves of rat at 49 mg/kg/day; Not significant; assay type: functional, organism-based; conditions: Sciatic nerve
Rattus norvegicus [21] = test: In vivo inhibition of galactitol accumulation in diaphragm of rat at 25 mg/kg/day; […]; assay type: functional, organism-based
Rattus norvegicus [22] = test: In vivo inhibition of galactitol accumulation in sciatic nerves of rat at 25 mg/kg/day; Not significant; assay type: functional, organism-based; conditions: Sciatic nerve
Rattus norvegicus [23] = test: In vivo inhibition of galactitol accumulation in sciatic nerves of rat at 24 mg/kg/day; Not significant; assay type: functional, organism-based; conditions: Sciatic nerve
Rattus norvegicus [24] = test: In vivo inhibition of galactitol accumulation in sciatic nerves of rat at 26 mg/kg/day; assay type: functional; conditions: Sciatic nerve
Rattus norvegicus [25] = test: In vivo inhibition of galactitol accumulation in sciatic nerves of rat at 48 mg/kg/day; assay type: functional; conditions: Sciatic nerve
Rattus norvegicus [26] = test: In vivo inhibition of galactitol accumulation in diaphragm of rat at 53 mg/kg/day; assay type: functional
Rattus norvegicus [27] = test: In vivo inhibition of galactitol accumulation in sciatic nerves of rat at 53 mg/kg/day; Not significant; assay type: functional, organism-based; conditions: Sciatic nerve
Rattus norvegicus [28] = test: In vivo inhibition of galactitol accumulation in sciatic nerves of rat at 25 mg/kg/day; assay type: functional; conditions: Sciatic nerve
Rattus norvegicus [29] = test: In vivo inhibition of galactitol accumulation in sciatic nerves at 5 mg/kg/day; Not significant; assay type: functional, organism-based; conditions: Sciatic nerve
Rattus norvegicus [30] = test: In vivo inhibition of galactitol accumulation in diaphragm of rat at 25 mg/kg/day; assay type: functional
Rattus norvegicus [31] = test: In vivo inhibition of galactitol accumulation in sciatic nerves of rat at 49 mg/kg/day; assay type: functional; conditions: Sciatic nerve

Question: Which inhibition [1] does the source give for `COc1ccc2c(C(=O)N(C)CC(N)=O)c(Cl)ccc2c1C(F)(F)F` here?
Answer: Its inhibition is “inactive”.

Question: And the inhibition in vivo at 24 mg/kg/day (Rattus norvegicus [2])?
Answer: Its inhibition in vivo at 24 mg/kg/day is 62%.

Question: What about the inhibition in vivo at 24 mg/kg/day (Rattus norvegicus [3]) of the same compound?
Answer: Its inhibition in vivo at 24 mg/kg/day is 53%.

Question: How did the inhibition [4] turn out when `COc1ccc2c(C(=O)N(C)CC(=O)O)cc(Cc3ccc(Br)cc3F)cc2c1Br` was run?
Answer: The inhibition was 66%.

Question: What about the inhibition (Rattus norvegicus [5]) of the same compound?
Answer: Its inhibition is “inactive”.

Question: And the Inhibition (Rattus norvegicus [6])?
Answer: The Inhibition was 92%.

Question: What about the Inhibition (Rattus norvegicus [7]) of the same compound?
Answer: The Inhibition was 63%.

Question: And the inhibition (Rattus norvegicus [8])?
Answer: The inhibition was “inactive”.

Question: What does the source list for `CCOC(=O)N(CC(=O)O)C(=O)c1c(Cl)ccc2c(C(F)(F)F)c(OC)ccc12`?
Answer: inhibition [9]: 79%; inhibition in vivo at 50 mg/kg/day (Rattus norvegicus [10]): 47%; inhibition (Rattus norvegicus [11]): inactive; Inhibition (Rattus norvegicus [6]): 79%; Inhibition (Rattus norvegicus [7]): 54%

Question: Which inhibition [12] does the source give for `COc1ccc2c(C(=S)N(C)CC(=O)O)c(C)ccc2c1C(F)(F)F` here?
Answer: Its inhibition is 70%.

Question: What about the inhibition in vivo at 26 mg/kg/day (Rattus norvegicus [13]) of the same compound?
Answer: Its inhibition in vivo at 26 mg/kg/day is 91%.

Question: And the inhibition (Rattus norvegicus [14])?
Answer: Its inhibition is “inactive”.

Question: What does the source list for `COc1ccc2c(C(=O)N(C)CC(=O)O)c(C(F)(F)F)ccc2c1C(F)(F)F`?
Answer: inhibition [9]: 32%; inhibition in vivo at 48 mg/kg/day (Rattus norvegicus [15]): 52%; inhibition (Rattus norvegicus [16]): inactive; Inhibition (Rattus norvegicus [6]): 65%; Inhibition (Rattus norvegicus [7]): 35%

Question: How did the inhibition [9] turn out when `COc1ccc2c(C(=S)N(C)CC(=O)O)cc(F)cc2c1Br` was run?
Answer: The inhibition was 86%.

Question: And the inhibition in vivo at 26 mg/kg/day (Rattus norvegicus [13])?
Answer: The inhibition in vivo at 26 mg/kg/day was 86%.

Question: What about the inhibition (Rattus norvegicus [14]) of the same compound?
Answer: The inhibition was “inactive”.

Question: `CCOC(=O)N(CC(=O)O)C(=O)c1c(OCC(F)(F)F)ccc2c(C(F)(F)F)c(OC)ccc12` was tested. Which inhibition [9] did it give?
Answer: The inhibition was 78%.

Question: And the inhibition in vivo at 27 mg/kg/day (Rattus norvegicus [17])?
Answer: The inhibition in vivo at 27 mg/kg/day was 39%.

Question: What about the inhibition (Rattus norvegicus [18]) of the same compound?
Answer: Its inhibition is “inactive”.

Question: And the Inhibition (Rattus norvegicus [6])?
Answer: Its Inhibition is 72%.

Question: And the Inhibition (Rattus norvegicus [7])?
Answer: Its Inhibition is 42%.

Question: Which results are given for `CCCCOc1ccc2c(C(F)(F)F)c(OC)ccc2c1C(=O)N(C)CC(=O)O`?
Answer: inhibition [9]: 42%; inhibition in vivo at 49 mg/kg/day (Rattus norvegicus [19]): 55%; inhibition (Rattus norvegicus [20]): inactive

Question: With `COc1ccc2c(C(=O)N(C)CC(N)=O)c(OCC(F)(F)F)ccc2c1C(F)(F)F` as the compound, how does the inhibition [1] read?
Answer: The inhibition was “inactive”.

Question: And the inhibition (Rattus norvegicus [21])?
Answer: The inhibition was “inactive”.

Question: What about the inhibition (Rattus norvegicus [22]) of the same compound?
Answer: Its inhibition is “inactive”.

Question: `COc1ccc2c(C(=S)N(C)CC(=O)O)c(Cl)ccc2c1C(F)(F)F` was tested. Which inhibition [9] did it give?
Answer: Its inhibition is 81%.

Question: And the inhibition (Rattus norvegicus [23])?
Answer: The inhibition was “inactive”.

Question: And the inhibition in vivo at 24 mg/kg/day (Rattus norvegicus [3])?
Answer: The inhibition in vivo at 24 mg/kg/day was 90%.

Question: With `COc1ccc2c(C(=S)N(C)CC(=O)O)c(OCC(F)(F)F)ccc2c1C(F)(F)F` as the compound, how does the inhibition [9] read?
Answer: Its inhibition is 86%.

Question: What about the inhibition in vivo at 26 mg/kg/day (Rattus norvegicus [13]) of the same compound?
Answer: The inhibition in vivo at 26 mg/kg/day was 88%.

Question: And the inhibition in vivo at 26 mg/kg/day (Rattus norvegicus [24])?
Answer: The inhibition in vivo at 26 mg/kg/day was 33%.

Question: For `COC(=O)N(CC(=O)O)C(=O)c1c(OCC(F)(F)F)ccc2c(C(F)(F)F)c(OC)ccc12`, which inhibition [9] is on record?
Answer: The inhibition was 83%.

Question: And the inhibition in vivo at 27 mg/kg/day (Rattus norvegicus [17])?
Answer: The inhibition in vivo at 27 mg/kg/day was 49%.

Question: And the inhibition (Rattus norvegicus [18])?
Answer: Its inhibition is “inactive”.

Question: What about the Inhibition (Rattus norvegicus [6]) of the same compound?
Answer: Its Inhibition is 64%.

Question: What about the Inhibition (Rattus norvegicus [7]) of the same compound?
Answer: The Inhibition was 36%.

Question: Which results are given for `COc1ccc2c(C(=O)N(C)CC(=O)O)c(Oc3ccccc3)ccc2c1C(F)(F)F`?
Answer: inhibition [9]: 83%; inhibition in vivo at 48 mg/kg/day (Rattus norvegicus [15]): 67%; inhibition in vivo at 48 mg/kg/day (Rattus norvegicus [25]): 32%; Inhibition (Rattus norvegicus [6]): 78%; Inhibition (Rattus norvegicus [7]): 45%

Question: Which inhibition [9] does the source give for `COc1ccc2c(C(=S)N(C)CC(=O)O)c(OCc3ccccc3)ccc2c1C(F)(F)F` here?
Answer: Its inhibition is 84%.

Question: What about the inhibition in vivo at 26 mg/kg/day (Rattus norvegicus [13]) of the same compound?
Answer: Its inhibition in vivo at 26 mg/kg/day is 80%.

Question: What about the inhibition (Rattus norvegicus [14]) of the same compound?
Answer: The inhibition was “inactive”.

Question: `COc1ccc2c(C(=S)N(C)CC(=O)O)cc(-c3ccccc3)cc2c1C(F)(F)F` was tested. Which inhibition [9] did it give?
Answer: The inhibition was 93%.

Question: And the inhibition in vivo at 53 mg/kg/day (Rattus norvegicus [26])?
Answer: Its inhibition in vivo at 53 mg/kg/day is 82%.

Question: And the inhibition (Rattus norvegicus [27])?
Answer: Its inhibition is “inactive”.

Question: What about the Inhibition (Rattus norvegicus [6]) of the same compound?
Answer: The Inhibition was 87%.

Question: And the Inhibition (Rattus norvegicus [7])?
Answer: Its Inhibition is 36%.

Question: Which inhibition [9] does the source give for `COc1ccc2c(C(=O)N(C)CC(=O)O)ccc(F)c2c1C(F)(F)F` here?
Answer: Its inhibition is 64%.

Question: And the inhibition in vivo at 26 mg/kg/day (Rattus norvegicus [13])?
Answer: Its inhibition in vivo at 26 mg/kg/day is 15%.

Question: And the inhibition (Rattus norvegicus [14])?
Answer: Its inhibition is “inactive”.

Question: With `COc1ccc2c(C(=S)N(C)CC(=O)O)c(F)ccc2c1C(F)(F)F` as the compound, how does the inhibition in vivo at 25 mg/kg/day (Rattus norvegicus [28]) read?
Answer: Its inhibition in vivo at 25 mg/kg/day is 92%.

Question: And the inhibition (Rattus norvegicus [29])?
Answer: The inhibition was “inactive”.

Question: What about the inhibition in vivo at 25 mg/kg/day (Rattus norvegicus [30]) of the same compound?
Answer: Its inhibition in vivo at 25 mg/kg/day is 93%.

Question: Which inhibition [9] does the source give for `CCOc1ccc2c(C(F)(F)F)c(OC)ccc2c1C(=O)N(C)CC(=O)O` here?
Answer: Its inhibition is 65%.

Question: And the inhibition in vivo at 49 mg/kg/day (Rattus norvegicus [19])?
Answer: The inhibition in vivo at 49 mg/kg/day was 57%.

Question: What about the inhibition in vivo at 49 mg/kg/day (Rattus norvegicus [31]) of the same compound?
Answer: The inhibition in vivo at 49 mg/kg/day was 45%.

Question: And the Inhibition (Rattus norvegicus [6])?
Answer: Its Inhibition is 55%.

Question: What about the Inhibition (Rattus norvegicus [7]) of the same compound?
Answer: Its Inhibition is 30%.

Reference: ChEMBL document CHEMBL1125860 (J Med Chem, 1991)
